Test results published in patent US20170107229A1, “SUBSTITUTED TETRAHYDROPYRIDOTHIENOPYRIMIDINES” (BAYER PHARMA AKTIENGESELLSCHAFT, priority 2014, published 2017).

The molecules below were run against T1, human full-length MKNK1 (Homo sapiens, UniProt Q9BUB5, T385D) (assay: MKNK1 kinase high ATP assay (TR-FRET)). Settings: high ATP (2 mM final), 15 min preincubation with enzyme, GST-MKNK1 (T344D).
T1 construct: GST (N); purchased Carna Biosciences 02-145; host or cells: insect cells (baculovirus expression system)
T1 sequence (Q9BUB5 1-424 isoform Q9BUB5-2 T344D): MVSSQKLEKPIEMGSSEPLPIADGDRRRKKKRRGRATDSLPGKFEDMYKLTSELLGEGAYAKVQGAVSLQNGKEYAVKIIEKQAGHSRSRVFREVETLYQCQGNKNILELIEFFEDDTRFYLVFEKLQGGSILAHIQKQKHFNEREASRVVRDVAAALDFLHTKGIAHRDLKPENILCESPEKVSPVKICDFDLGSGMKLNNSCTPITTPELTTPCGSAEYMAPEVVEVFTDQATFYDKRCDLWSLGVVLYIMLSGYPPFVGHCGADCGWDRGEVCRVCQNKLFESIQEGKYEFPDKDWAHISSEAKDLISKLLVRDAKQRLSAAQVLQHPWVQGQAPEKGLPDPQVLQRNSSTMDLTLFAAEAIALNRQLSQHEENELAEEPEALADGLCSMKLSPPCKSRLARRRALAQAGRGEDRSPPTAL
Assay type: biochemical
Procedure: MKNK1-inhibitory activity at high ATP of compounds of the present invention after their preincubation with MKNK1 was quantified employing the TR-FRET-based MKNK1 high ATP assay as described in the following paragraphs.
A recombinant fusion protein of Glutathione-S-Transferase (GST, N-terminally) and human full-length MKNK1 (amino acids 1-424 and T344D of accession number BAA 19885.1), expressed in insect cells using baculovirus expression system and purified via glutathione sepharose affinity chromatography, was purchased from Carna Biosciences (product no 02-145) and used as enzyme. As substrate for the kinase reaction the biotinylated peptide biotin-Ahx-IKKRKLTRRKSLKG (C-terminus in amide form) was used, which can be purchased e.g. from the company Biosyntan (Berlin-Buch, Germany).
For the assay 50 nL of a 100fold concentrated solution of the test compound in DMSO was pipetted into a black low volume 384well microtiter plate (Greiner Bio-One, Frickenhausen, Germany), 2 μL of a solution of MKNK1 in aqueous assay buffer [50 mM HEPES pH 7.5, 5 mM MgCl2, 1.0 mM dithiothreitol, 0.005% (v/v) Nonidet-P40 (Sigma)] was added and the mixture was incubated for 15 min at 22° C. to allow pre-binding of the test compounds to the enzyme before the start of the kinase reaction. Then the kinase reaction was started by the addition of 3 μL of a solution of adenosine-tri-phosphate (ATP, 3.3 mM=>final conc. in the 5 μL assay volume is 2 mM) and substrate (0.1 μM=>final conc. in the 5 μL assay volume is 0.06 μM) in assay buffer and the resulting mixture was incubated for a reaction time of 30 min at 22° C. The concentration of MKNK1 was adjusted depending of the activity of the enzyme lot and was chosen appropriate to have the assay in the linear range, typical concentrations were in the range of 0.003 μg/mL. The reaction was stopped by the addition of 5 μL of a solution of TR-FRET detection reagents (5 nM streptavidine-XL665 [Cisbio Bioassays, Codolet, France] and 1 nM anti-ribosomal protein S6 (pSer236)-antibody from Invitrogen [#44921G] and 1 nM LANCE EU-W1024 labeled ProteinG [Perkin-Elmer, product no. AD0071]) in an aqueous EDTA-solution (100 mM EDTA, 0.1% (w/v) bovine serum albumin in 50 mM HEPES pH 7.5).
The resulting mixture was incubated for 1 h at 22° C. to allow the formation of complex between the phosphorylated biotinylated peptide and the detection reagents. Subsequently the amount of phosphorylated substrate was evaluated by measurement of the resonance energy transfer from the Eu-chelate to the streptavidine-XL. Therefore, the fluorescence emissions at 620 nm and 665 nm after excitation at 350 nm were measured in a TR-FRET reader, e.g. a Rubystar (BMG Labtechnologies, Offenburg, Germany) or a Viewlux (Perkin-Elmer). The ratio of the emissions at 665 nm and at […] was taken as the measure for the amount of phosphorylated substrate. The data were normalised (enzyme reaction without inhibitor=0% inhibition, all other assay components but no enzyme=100% inhibition).

SMILES | IC50 [nM]
CSc1cc2[nH]ncc2cc1Nc1ncnc2sc3c(c12)CCNC3 [Example 1, N-[6-(Methylsulfanyl)-1H-indazol-5-yl]-5,6,7,8-tetrahydropyrido[4′,3′:4,5]thieno[2,3-d]pyrimidin-4-amine] | 24
c1nc(Nc2cnc3[nH]ncc3c2)c2c3c(sc2n1)CN(CCN1CCOCC1)CC3 [Example 64, 7-[2-(Morpholin-4-yl)ethyl]-N-(1H-pyrazolo[3,4-b]pyridin-5-yl)-5,6,7,8-tetrahydropyrido[4′,3′:4,5]thieno[2,3-d]pyrimidin-4-amine] | 119
COc1cc2[nH]ncc2cc1Nc1ncnc2sc3c(c12)CCN(CCCN1C[C@@H](C)O[C@@H](C)C1)C3 [Example 89, 7-{3-[(2R,6S)-2,6-Dimethylmorpholin-4-yl]propyl}-N-(6-methoxy-1H-indazol-5-yl)-5,6,7,8-tetrahydropyrido[4′,3′:4,5]thieno[2,3-d]pyrimidin-4-amine] | 3
COc1cc2[nH]ncc2cc1Nc1ncnc2sc3c(c12)CCN(C(=O)NCCC(F)(F)F)C3 [Example 100, 4-[(6-Methoxy-1H-indazol-5-yl)amino]-N-(3,3,3-trifluoropropyl)-5,8-dihydropyrido[4′,3′:4,5]thieno[2,3-d]pyrimidine-7(6H)-carboxamide] | 1
CC(C)C(=O)N1CCc2c(sc3ncnc(Nc4ccc5[nH]ncc5c4)c23)C1 [Example 19, 1-[4-(1H-indazol-5-ylamino)-5,8-dihydropyrido[4′,3′:4,5]thieno[2,3-d]pyrimidin-7(6H)-yl]-2-methylpropan-1-one] | 15
CN1CCC(C(=O)N2CCc3c(sc4ncnc(Nc5cc6cn[nH]c6cn5)c34)C2)CC1 [Example 77, (1-Methylpiperidin-4-yl)[4-(1H-pyrazolo[3,4-c]pyridin-5-ylamino)-5,8-dihydropyrido[4′,3′:4,5]thieno[2,3-d]pyrimidin-7(6H)-yl]methanone] | 28
CSc1cc2[nH]ncc2cc1Nc1ncnc2sc3c(c12)CCN(CC(F)(F)F)C3 [Example 11, N-[6-(Methylsulfanyl)-1H-indazol-5-yl]-7-(2,2,2-trifluoroethyl)-5,6,7,8-tetrahydropyrido[4′,3′:4,5]thieno[2,3-d]pyrimidin-4-amine] | 15
C[C@@H]1CN(C(=O)N2CCc3c(sc4ncnc(Nc5ccc6[nH]c(=O)sc6c5)c34)C2)C[C@H](C)O1 [Example 31, 6-[(7-{[(2R,6S)-2,6-Dimethylmorpholin-4-yl]carbonyl}-5,6,7,8-tetrahydropyrido[4′,3′:4,5]thieno[2,3-d]pyrimidin-4-yl)amino]-1,3-benzothiazol-2(3H)-one] | 59
CSc1cc2[nH]ncc2cc1Nc1ncnc2sc3c(c12)CCN(S(C)(=O)=O)C3 [Example 48, N-[6-(Methylsulfanyl)-1H-indazol-5-yl]-7-(methylsulfonyl)-5,6,7,8-tetrahydropyrido[4′,3′:4,5]thieno[2,3-d]pyrimidin-4-amine] | 27
CSc1cc2[nH]ncc2cc1Nc1ncnc2sc3c(c12)CCN(C(=O)OC(C)(C)C)C3 [Example 2, tert-Butyl 4-{[6-(methylsulfanyl)-1H-indazol-5-yl]amino}-5,8-dihydropyrido[4′,3′:4,5]thieno[2,3-d]pyrimidine-7(6H)-carboxylate] | 16
COc1cc2[nH]ncc2cc1Nc1ncnc2sc3c(c12)CCN(CCCN1CCNC1=O)C3 [Example 83, 1-(3-{4-[(6-Methoxy-1H-indazol-5-yl)amino]-5,8-dihydropyrido[4′,3′:4,5]thieno[2,3-d]pyrimidin-7(6H)-yl}propyl)imidazolidin-2-one] | 15
CC(C)C(=O)N1CCc2c(sc3ncnc(Nc4cnc5[nH]ncc5c4)c23)C1 [Example 21, 2-Methyl-1-[4-(1H-pyrazolo[3,4-b]pyridin-5-ylamino)-5,8-dihydropyrido[4′,3′:4,5]thieno[2,3-d]pyrimidin-7(6H)-yl]propan-1-one] | 40
c1nc(Nc2cc3cn[nH]c3cn2)c2c3c(sc2n1)CN(CCN1CCOCC1)CC3 [Example 60, 7-[2-(Morpholin-4-yl)ethyl]-N-(1H-pyrazolo[3,4-c]pyridin-5-yl)-5,6,7,8-tetrahydropyrido[4′,3′:4,5]thieno[2,3-d]pyrimidin-4-amine] | 98
CN(C)C(=O)N1CCc2c(sc3ncnc(Nc4cc5cn[nH]c5cn4)c23)C1 [Example 14, N,N-Dimethyl-4-(1H-pyrazolo[3,4-c]pyridin-5-ylamino)-5,8-dihydropyrido[4′,3′:4,5]thieno[2,3-d]pyrimidine-7(6H)-carboxamide] | 30

Continued, values first:

IC50 [nM] | SMILES
28 | O=C(N1CCOCC1)N1CCc2c(sc3ncnc(Nc4cc5cn[nH]c5cn4)c23)C1 [Example 24, Morpholin-4-yl[4-(1H-pyrazolo[3,4-c]pyridin-5-ylamino)-5,8-dihydropyrido[4′,3′:4,5]thieno[2,3-d]pyrimidin-7(6H)-yl]methanone]
6 | COc1cc2[nH]ncc2cc1Nc1ncnc2sc3c(c12)CCN(C(=O)OC(C)(C)C)C3 [Example 4, tert-Butyl 4-[(6-methoxy-1H-indazol-5-yl)amino]-5,8-dihydropyrido[4′,3′:4,5]thieno[2,3-d]pyrimidine-7(6H)-carboxylate]
10 | COc1cc2[nH]ncc2cc1Nc1ncnc2sc3c(c12)CCN(C(=O)N1CCCC1)C3 [Example 72, {4-[(6-Methoxy-1H-indazol-5-yl)amino]-5,8-dihydropyrido[4′,3′:4,5]thieno[2,3-d]pyrimidin-7(6H)-yl}(pyrrolidin-1-yl)methanone]
258 | O=C(N1CCOCC1)N1CCc2c(sc3ncnc(Nc4cc5cn[nH]c5cc4Br)c23)C1 [Example 53, {4-[(6-Bromo-1H-indazol-5-yl)amino]-5,8-dihydropyrido[4′,3′:4,5]thieno[2,3-d]pyrimidin-7(6H)-yl}(morpholin-4-yl)methanone]
4 | COc1cc2[nH]ncc2cc1Nc1ncnc2sc3c(c12)CCN(C(=O)C(C)C)C3 [Example 22, 1-{4-[(6-Methoxy-1H-indazol-5-yl)amino]-5,8-dihydropyrido[4′,3′:4,5]thieno[2,3-d]pyrimidin-7(6H)-yl}-2-methylpropan-1-one]
3 | COc1cc2[nH]ncc2cc1Nc1ncnc2sc3c(c12)CCN(C(=O)N1C[C@H](C)O[C@@H](C)C1)C3 [Example 94, [(2S,6S)-2,6-Dimethylmorpholin-4-yl]{4-[(6-methoxy-1H-indazol-5-yl)amino]-5,8-dihydropyrido[4′,3′:4,5]thieno[2,3-d]pyrimidin-7(6H)-yl}methanone]
6 | COc1cc2[nH]ncc2cc1Nc1ncnc2sc3c(c12)CCN(C(=O)c1cnc[nH]1)C3 [Example 75, 1H-Imidazol-5-yl{4-[(6-methoxy-1H-indazol-5-yl)amino]-5,8-dihydropyrido[4′,3′:4,5]thieno[2,3-d]pyrimidin-7(6H)-yl}methanone]
5 | COc1cc2[nH]ncc2cc1Nc1ncnc2sc3c(c12)CCN(C(=O)c1cocn1)C3 [Example 81, {4-[(6-Methoxy-1H-indazol-5-yl)amino]-5,8-dihydropyrido[4′,3′:4,5]thieno[2,3-d]pyrimidin-7(6H)-yl}(1,3-oxazol-4-yl)methanone]
10 | COc1cc2[nH]ncc2cc1Nc1ncnc2sc3c(c12)CCN(C(=O)c1ccc(Cl)n1C)C3 [Example 76, (5-Chloro-1-methyl-1H-pyrrol-2-yl){4-[(6-methoxy-1H-indazol-5-yl)amino]-5,8-dihydropyrido[4′,3′:4,5]thieno[2,3-d]pyrimidin-7(6H)-yl}methanone]
22 | COc1cc2[nH]ncc2cc1Nc1ncnc2sc3c(c12)CCN(C(=O)N1CCOCC1)C3 [Example 42, {4-[(6-Methoxy-1H-indazol-5-yl)amino]-5,8-dihydropyrido[4′,3′:4,5]thieno[2,3-d]pyrimidin-7(6H)-yl}(morpholin-4-yl)methanone]
19 | COc1cc2[nH]ncc2cc1Nc1ncnc2sc3c(c12)CCN(C(=O)N1CCCCC1)C3 [Example 70, {4-[(6-Methoxy-1H-indazol-5-yl)amino]-5,8-dihydropyrido[4′,3′:4,5]thieno[2,3-d]pyrimidin-7(6H)-yl}(piperidin-1-yl)methanone]
